Measured values reported in US12630600B2 (MEDIMMUNE LIMITED, priority 2022, dated 2026).
Where two headings read alike, the source gives them in different places. Starred links: 1 amine or outer side, 2 acyl side, 3 side chain; linkers in the order of their positions; H or OH if unused. Non-standard residues stand in square brackets, D forms with d. Residues, ends and D or L forms follow the SMILES beside them. Groups on a side chain read outwards from the residue. *: point of attachment. C20 diacid = O=C(O)CCCCCCCCCCCCCCCCCCC(=O)*; C18 diacid = O=C(O)CCCCCCCCCCCCCCCCC(=O)*; Dip = N[C@H](C(=O)O)C(c1ccccc1)c1ccccc1; γGlu = O=C(O)[C@H](CCC(=O)[*:2])N[*:1]; αMeF = C[C@](N)(Cc1ccccc1)C(=O)O; AEEA = NCCOCCOCC(=O)O; Aib = CC(C)(N)C(=O)O

How the values were obtained:
neprilysin = biological target: T1, neprilysin (Homo sapiens, UniProt P08473); test: Proteolytic resistance to neprilysin; assay type: in vitro ADME; conditions: pH 8.3
T1 construct: purchased R&D Systems 1182-ZNC-010
T1 sequence (P08473 whole entry): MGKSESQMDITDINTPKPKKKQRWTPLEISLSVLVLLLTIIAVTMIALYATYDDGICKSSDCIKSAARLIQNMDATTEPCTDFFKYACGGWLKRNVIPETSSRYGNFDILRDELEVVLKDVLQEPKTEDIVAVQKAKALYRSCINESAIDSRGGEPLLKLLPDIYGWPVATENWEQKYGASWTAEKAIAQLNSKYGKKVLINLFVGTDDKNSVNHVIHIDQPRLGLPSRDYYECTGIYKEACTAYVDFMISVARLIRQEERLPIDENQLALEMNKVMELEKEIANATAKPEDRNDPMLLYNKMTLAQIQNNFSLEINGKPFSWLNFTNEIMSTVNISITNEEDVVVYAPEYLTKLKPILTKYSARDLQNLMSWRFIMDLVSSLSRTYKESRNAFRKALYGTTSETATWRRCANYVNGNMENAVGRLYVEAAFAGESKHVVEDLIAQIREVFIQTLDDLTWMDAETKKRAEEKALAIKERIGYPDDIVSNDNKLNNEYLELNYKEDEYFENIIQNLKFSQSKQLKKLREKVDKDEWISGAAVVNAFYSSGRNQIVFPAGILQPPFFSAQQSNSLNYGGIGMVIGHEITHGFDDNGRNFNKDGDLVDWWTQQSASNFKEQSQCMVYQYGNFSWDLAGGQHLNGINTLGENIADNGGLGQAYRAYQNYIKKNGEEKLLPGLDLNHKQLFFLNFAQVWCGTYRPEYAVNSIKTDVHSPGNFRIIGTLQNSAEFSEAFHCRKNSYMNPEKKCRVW
Experimental: 10.0 μg (˜10 units) recombinant Neprilysin (R&D Systems: 1182-ZNC-010) was reconstituted to 100 μL (100 μg/mL, ˜100 units/mL) in assay buffer (50 mM Tris, 50 mM NaCl, 50 mM NaHCO3, adjusted to pH 8.3) to give the enzyme stock solution. Peptide stock solutions were prepared to a concentration of ˜250 μM (˜1.0 mg/mL of 4 kDa peptide) in assay buffer. 100 μL (10 μg, ˜10 units) of neprilysin stock solution was added to 100 μL of peptide stock solution (1.0 mg/mL, ˜100 μg of peptide) and the mixture was co-incubated in a temperature regulated incubator at 37° C. for the duration of the experiment. 25 μL aliquots (˜12.5 μg initial peptide) of the peptide-enzyme mixture were periodically withdrawn (t=0, 30 mins, 1 h, 2 h, 4 h and 24 h) and quenched immediately by addition to an equal volume ([…]) of 10% TFA (v/v) in 1:1 water/acetonitrile to arrest proteolytic activity. The quenched aliquot centrifuged at 7800 rpm, and 30 μL of the supernatant was analyzed by analytical RP-HPLC as follows: Analytical RP-HPLC method: Agilent Polaris C8-A column (4.6×100 mm, 3 micron) eluted with a linear binary gradient of 10-90% MeCN (0.1% TFA v/v) in water (0.1% TFA v/v) over either 10 or 15 mins at 1.5 mL min^−1 at 40° C. with detection by UV absorption at 210 nm. Manual integration (AUC) allowed estimation of remaining intact peptide over the time course of the experiment.

[1] = biological target: T2, human GLP-1 receptor (hGLP-1R) (Homo sapiens, UniProt P43220); test: cAMP production (HTRF) in CHO cells expressing human GLP-1 receptor; assay type: cell-based; conditions: for % Relative Potency Ratio: % GLP-1R activity relative to GLP-1 / % GlucR activity relative to glucagon; for EC50: geometric mean, cAMP
T2 construct: expressed in transfected cells; host or cells: CHO
T2 sequence (P43220 24-463): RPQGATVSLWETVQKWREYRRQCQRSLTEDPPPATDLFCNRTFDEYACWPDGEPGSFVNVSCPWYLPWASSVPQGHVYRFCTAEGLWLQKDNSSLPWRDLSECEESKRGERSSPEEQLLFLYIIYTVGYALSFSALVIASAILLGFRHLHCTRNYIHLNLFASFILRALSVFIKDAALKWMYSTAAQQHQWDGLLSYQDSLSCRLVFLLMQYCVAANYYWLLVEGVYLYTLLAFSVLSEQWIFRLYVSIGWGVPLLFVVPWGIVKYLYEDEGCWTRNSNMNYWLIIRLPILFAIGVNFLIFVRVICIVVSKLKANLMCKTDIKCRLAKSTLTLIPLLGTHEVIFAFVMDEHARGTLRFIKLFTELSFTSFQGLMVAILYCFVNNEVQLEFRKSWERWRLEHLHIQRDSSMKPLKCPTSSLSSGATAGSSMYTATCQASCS

[2] = biological target: T3, human glucagon receptor (hGCGR) (Homo sapiens, UniProt P47871); test: cAMP production (HTRF) in CHO cells expressing human glucagon receptor; assay type: cell-based
T3 construct: expressed in transfected cells; host or cells: CHO
T3 sequence (P47871 26-477): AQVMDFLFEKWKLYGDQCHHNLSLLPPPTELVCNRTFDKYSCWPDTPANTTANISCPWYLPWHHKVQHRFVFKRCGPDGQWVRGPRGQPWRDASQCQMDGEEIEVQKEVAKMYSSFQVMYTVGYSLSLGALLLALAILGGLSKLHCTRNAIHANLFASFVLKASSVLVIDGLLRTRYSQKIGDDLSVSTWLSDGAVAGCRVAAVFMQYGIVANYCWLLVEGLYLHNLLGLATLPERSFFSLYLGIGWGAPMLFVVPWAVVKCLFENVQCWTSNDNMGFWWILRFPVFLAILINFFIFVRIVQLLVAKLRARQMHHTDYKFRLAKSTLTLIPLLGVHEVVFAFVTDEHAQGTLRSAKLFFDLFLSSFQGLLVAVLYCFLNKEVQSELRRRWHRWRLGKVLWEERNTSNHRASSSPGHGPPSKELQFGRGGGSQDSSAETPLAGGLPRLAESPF

CC[C@H](C)[C@H](NC(=O)C(C)(C)NC(=O)[C@H](CCC(N)=O)NC(=O)[C@@H](NC(=O)[C@H](Cc1ccccc1)NC(=O)[C@H](CC(=O)O)NC(=O)[C@H](CCCCNC(=O)COCCOCCNC(=O)COCCOCCNC(=O)CC[C@H](NC(=O)CCCCCCCCCCCCCCCCC(=O)O)C(=O)O)NC(=O)[C@H](C)NC(=O)[C@H](C)NC(=O)[C@H](CCCNC(=N)N)NC(=O)[C@H](CO)NC(=O)[C@H](CC(=O)O)NC(=O)[C@H](CC(C)C)NC(=O)[C@](C)(Cc1ccccc1)NC(=O)[C@H](CCCCN)NC(=O)[C@H](CO)NC(=O)[C@@H](NC(=O)[C@H](CC(=O)O)NC(=O)[C@H](CO)NC(=O)[C@@H](NC(=O)[C@](C)(Cc1ccccc1)NC(=O)[C@H](CO)NC(=O)CNC(=O)[C@H](Cc1c[nH]cn1)NC(=O)C(C)(C)NC(=O)[C@@H](N)Cc1c[nH]cn1)[C@@H](C)O)C(C)C)C(C)C)C(=O)N[C@@H](C)C(=O)N[C@@H](CC(N)=O)C(=O)N[C@H](C(N)=O)[C@@H](C)O [Peptide 287] (H-H[Aib]HGS[αMeF]TSDVSK[αMeF]LDSRAAK([AEEA-AEEA-γGlu-C18 diacid])DFVQ[Aib]IANT-NH2)
% intact peptide over time, Neprilysin (neprilysin): 100%

CC[C@H](C)[C@H](NC(=O)C(C)(C)NC(=O)[C@H](CCC(=O)O)NC(=O)[C@@H](NC(=O)[C@](C)(Cc1ccccc1)NC(=O)[C@H](CC(=O)O)NC(=O)[C@H](CCCNC(=N)N)NC(=O)[C@H](C)NC(=O)[C@H](C)NC(=O)[C@H](CCCCNC(=O)COCCOCCNC(=O)COCCOCCNC(=O)CC[C@H](NC(=O)CCCCCCCCCCCCCCCCC(=O)O)C(=O)O)NC(=O)[C@H](CO)NC(=O)[C@H](CC(=O)O)NC(=O)[C@H](CC(C)C)NC(=O)[C@](C)(Cc1ccccc1)NC(=O)[C@H](CCCCN)NC(=O)[C@H](CO)NC(=O)[C@@H](NC(=O)[C@H](CC(=O)O)NC(=O)[C@H](CO)NC(=O)[C@@H](NC(=O)[C@](C)(Cc1ccccc1)NC(=O)[C@H](CO)NC(=O)CNC(=O)[C@H](Cc1c[nH]cn1)NC(=O)C(C)(C)NC(=O)[C@@H](N)Cc1c[nH]cn1)[C@@H](C)O)C(C)C)C(C)C)C(=O)N[C@@H](C)C(=O)N[C@@H](CC(N)=O)C(=O)N[C@H](C(N)=O)[C@@H](C)O [Peptide 15] (H-H[Aib]HGS[αMeF]TSDVSK[αMeF]LDSK([AEEA-AEEA-γGlu-C18 diacid])AARD[αMeF]VE[Aib]IANT-NH2; N-terminus assumed)
% intact peptide over time, Neprilysin (neprilysin): 100%

CC[C@H](C)[C@H](NC(=O)[C@H](Cc1c[nH]c2ccccc12)NC(=O)[C@H](CCCCNC(=O)CC[C@H](NC(=O)CCCCCCCCCCCCCCCCC(=O)O)C(=O)O)NC(=O)[C@@H](NC(=O)[C@H](Cc1ccccc1)NC(=O)[C@H](CC(=O)O)NC(=O)[C@H](CCC(N)=O)NC(=O)[C@H](C)NC(=O)[C@H](C)NC(=O)[C@H](CCC(N)=O)NC(=O)[C@H](CO)NC(=O)[C@H](CC(=O)O)NC(=O)[C@H](CC(C)C)NC(=O)[C@](C)(Cc1ccccc1)NC(=O)[C@H](CCCCN)NC(=O)[C@H](CO)NC(=O)[C@@H](NC(=O)[C@H](CC(=O)O)NC(=O)[C@H](CO)NC(=O)[C@@H](NC(=O)[C@H](Cc1ccccc1)NC(=O)[C@@H](NC(=O)CNC(=O)[C@H](Cc1c[nH]cn1)NC(=O)C(C)(C)NC(=O)[C@@H](N)Cc1c[nH]cn1)[C@@H](C)O)[C@@H](C)O)C(C)C)C(C)C)C(=O)N[C@@H](C)C(=O)N[C@@H](CC(N)=O)C(=O)N[C@H](C(N)=O)[C@@H](C)O [Peptide 346]
% Relative Potency Ratio ([1]; Table 8): 0.1
EC50 ([1]; hGLP-1R EC50 (pM), Table 8, peptides modified at position 24, CHO cells): 7320 pM
EC50 ([2]; hGluc-R EC50 (pM), Table 8, peptides modified at position 24, geometric mean, CHO cells): 203 pM

CC[C@H](C)[C@H](NC(=O)[C@H](Cc1c[nH]c2ccccc12)NC(=O)[C@H](CCCCNC(=O)CC[C@H](NC(=O)CCCCCCCCCCCCCCCCC(=O)O)C(=O)O)NC(=O)[C@@H](NC(=O)[C@H](Cc1ccccc1)NC(=O)[C@H](CC(=O)O)NC(=O)[C@H](CCC(N)=O)NC(=O)[C@H](C)NC(=O)[C@H](C)NC(=O)[C@H](CCCNC(=N)N)NC(=O)[C@H](CO)NC(=O)[C@H](CC(=O)O)NC(=O)[C@H](CC(C)C)NC(=O)[C@@H](NC(=O)[C@H](CCCCN)NC(=O)[C@H](CO)NC(=O)[C@@H](NC(=O)[C@H](CC(=O)O)NC(=O)[C@H](CO)NC(=O)[C@@H](NC(=O)[C@H](Cc1ccccc1)NC(=O)[C@H](CO)NC(=O)CNC(=O)[C@H](CCC(N)=O)NC(=O)C(C)(C)NC(=O)[C@@H](N)Cc1c[nH]cn1)[C@@H](C)O)C(C)C)C(c1ccccc1)c1ccccc1)C(C)C)C(=O)N[C@@H](C)C(=O)N[C@@H](CC(N)=O)C(=O)N[C@H](C(N)=O)[C@@H](C)O [Peptide 343] (H-H[Aib]QGSFTSDVSK[Dip]LDSRAAQDFVK([γGlu-C18 diacid])WIANT-NH2)
EC50 ([1]; Table 7, modification at position 20, CHO cells expressing hGLP-1R, read-out: hGLP-1R EC50): 198 pM
% Relative Potency Ratio ([1]; Table 7): 196.1
% Relative Potency Ratio ([1]; Table 8): 4.2
EC50 ([2]; Table 7, modification at position 20, CHO cells expressing hGCGR, geometric mean, read-out: hGluc-R EC50): 19600 pM

CC[C@H](C)[C@H](NC(=O)C(C)(C)NC(=O)[C@H](CCC(N)=O)NC(=O)[C@@H](NC(=O)[C@](C)(Cc1ccccc1)NC(=O)[C@H](CC(=O)O)NC(=O)[C@H](CCCCNC(=O)COCCOCCNC(=O)COCCOCCNC(=O)CC[C@H](NC(=O)CC[C@H](NC(=O)CCCCCCCCCCCCCCCCCCC(=O)O)C(=O)O)C(=O)O)NC(=O)[C@H](C)NC(=O)[C@H](C)NC(=O)[C@H](CCCNC(=N)N)NC(=O)[C@H](CO)NC(=O)[C@H](CC(=O)O)NC(=O)[C@H](CC(C)C)NC(=O)[C@H](Cc1ccc(O)cc1)NC(=O)[C@H](CCCCN)NC(=O)[C@H](CO)NC(=O)[C@@H](NC(=O)[C@H](CC(=O)O)NC(=O)[C@H](CO)NC(=O)[C@@H](NC(=O)[C@](C)(Cc1ccccc1)NC(=O)[C@H](CO)NC(=O)CNC(=O)[C@H](Cc1c[nH]cn1)NC(=O)C(C)(C)NC(=O)[C@@H](N)Cc1c[nH]cn1)[C@@H](C)O)C(C)C)C(C)C)C(=O)N[C@@H](C)C(=O)N[C@@H](CC(N)=O)C(=O)N[C@H](C(N)=O)[C@@H](C)O [Peptide 283] (H-H[Aib]HGS[αMeF]TSDVSKYLDSRAAK([AEEA-AEEA-γGlu-γGlu-C20 diacid])D[αMeF]VQ[Aib]IANT-NH2)
% intact peptide over time, Neprilysin (neprilysin): 100%

CC[C@H](C)[C@H](NC(=O)C(C)(C)NC(=O)[C@H](CCC(N)=O)NC(=O)[C@@H](NC(=O)[C@](C)(Cc1ccccc1)NC(=O)[C@H](CC(=O)O)NC(=O)[C@H](CCCCNC(=O)COCCOCCNC(=O)COCCOCCNC(=O)CC[C@H](NC(=O)CC[C@H](NC(=O)CCCCCCCCCCCCCCCCCCC(=O)O)C(=O)O)C(=O)O)NC(=O)[C@H](C)NC(=O)[C@H](C)NC(=O)[C@H](CCCNC(=N)N)NC(=O)[C@H](CO)NC(=O)[C@H](CC(=O)O)NC(=O)[C@H](CC(C)C)NC(=O)[C@](C)(Cc1ccccc1)NC(=O)[C@H](CCCCN)NC(=O)[C@H](CO)NC(=O)[C@@H](NC(=O)[C@H](CC(=O)O)NC(=O)[C@H](CO)NC(=O)[C@@H](NC(=O)[C@H](Cc1ccccc1)NC(=O)[C@H](CO)NC(=O)CNC(=O)[C@H](Cc1c[nH]cn1)NC(=O)C(C)(C)NC(=O)[C@@H](N)Cc1c[nH]cn1)[C@@H](C)O)C(C)C)C(C)C)C(=O)N[C@@H](C)C(=O)N[C@@H](CC(N)=O)C(=O)N[C@H](C(N)=O)[C@@H](C)O [Peptide 282] (H-H[Aib]HGSFTSDVSK[αMeF]LDSRAAK([AEEA-AEEA-γGlu-γGlu-C20 diacid])D[αMeF]VQ[Aib]IANT-NH2)
% intact peptide over time, Neprilysin (neprilysin): 100%

CC[C@H](C)[C@H](NC(=O)C(C)(C)NC(=O)[C@H](CCCCNC(=O)COCCOCCNC(=O)COCCOCCNC(=O)CC[C@H](NC(=O)CC[C@H](NC(=O)CCCCCCCCCCCCCCCCCCC(=O)O)C(=O)O)C(=O)O)NC(=O)[C@@H](NC(=O)[C@](C)(Cc1ccccc1)NC(=O)[C@H](CC(=O)O)NC(=O)[C@H](CCC(N)=O)NC(=O)[C@H](C)NC(=O)[C@H](C)NC(=O)[C@H](CCCNC(=N)N)NC(=O)[C@H](CO)NC(=O)[C@H](CC(=O)O)NC(=O)[C@H](CC(C)C)NC(=O)[C@](C)(Cc1ccccc1)NC(=O)[C@H](CCCCN)NC(=O)[C@H](CO)NC(=O)[C@@H](NC(=O)[C@H](CC(=O)O)NC(=O)[C@H](CO)NC(=O)[C@@H](NC(=O)[C@](C)(Cc1ccccc1)NC(=O)[C@H](CO)NC(=O)CNC(=O)[C@H](Cc1c[nH]cn1)NC(=O)C(C)(C)NC(=O)[C@@H](N)Cc1c[nH]cn1)[C@@H](C)O)C(C)C)C(C)C)C(=O)N[C@@H](C)C(=O)N[C@@H](CC(N)=O)C(=O)N[C@H](C(=O)NCC(=O)NCC(N)=O)[C@@H](C)O [Peptide 376] (H-H[Aib]HGS[αMeF]TSDVSK[αMeF]LDSRAAQD[αMeF]VK([AEEA-AEEA-γGlu-γGlu-C20 diacid])[Aib]IANTGG-NH2; N-terminus assumed)
EC50 ([1]; Table 8, peptides modified at position 24, CHO cells, read-out: hGLP-1R EC50): 156 pM
% Relative Potency Ratio ([1]; Table 8): 10.8
EC50 ([2]; Table 8, peptides modified at position 24, geometric mean, CHO cells, read-out: hGluc-R EC50): 853 pM
